{
  "source": "patent US20200166671A1",
  "about": "“LIPOIC ACID HYDROGELS” (UNIVERSIDADE DE SANTIAGO DE COMPOSTELA, priority 2017, published 2020)",
  "key": {"[1]": {"settings": "Andrade et al., Exp Eye Res. 2014; cited from earlier work"}, "[2]": {"assay": "Demulcent loading of hydrogel discs functionalized with CD", "assay_type": "physicochemical", "settings": "20° C., aqueous demulcent solution", "experimental": "Next, a different demulcent was loaded in each disc functionalized with CD.\nThe weighed hydrogel discs were placed in 5 or 10 mL of aqueous polysorbate 80 solutions (0.2; 0.5 or 1 mg/mL) and kept at 20° C. under magnetic stirring (80 rpm) for 24 hours. Absorbance of the medium was monitored at 234 nm (Agilent […] UV/Vis spectrophotometer, Germany). The amount of loaded polysorbate 80 was estimated from the difference between the amounts in the loading medium before and after the loading tests.\nThe weighed hydrogel discs were placed in 5 or 10 mL of aqueous PEG4000 solutions (0.1 mg/mL), kept at 20° C. under magnetic stirring (80 rpm) for 48 hours. Aliquots of loading medium were analyzed by means of HPLC. The loaded amount of PEG4000 was estimated from the difference between the amounts in the loading medium before and after the loading tests.\n(§1) The weighed hydrogel discs were introduced in vials containing 10 mL of aqueous ALA solution (saturated, ˜0.8 mg/mL). The vials remained under oscillating agitation (150 osc/min) at 20° C. At times 24 and 48 h, a sample of 3 mL of the loading solution was taken and absorbance was measured at 334 nm (Agilent 8453 UV/VIS, Germany). The amount of ALA loaded for every hydrogel was calculated by the difference between the initial content in the loading solution and the remaining content at the end of the test.\nThe loading results, measured in amount of demulcent for every gram of dry mass of hydrogel, are shown below: […]"}, "peroxidase": {"test_system": "peroxidase", "settings": "Andrade et al., Exp Eye Res. 2014; cited from earlier work"}, "[3]": {"assay": "Saturated aqueous ALA solution", "assay_type": "physicochemical", "experimental": "as §1"}},
  "data": [
    {"compound": "O=C(O)CCCC[C@@H]1CCSS1", "note": "[α-lipoic acid]", "values": [
      {"measurement": "tear production", "setting": "[1]", "result": "increase in tear production"},
      {"measurement": "amount of demulcent for every gram of dry mass of hydrogel", "setting": "[2]; loading 24 h", "result": 57, "unit": "mg/g"},
      {"measurement": "amount of demulcent for every gram of dry mass of hydrogel", "setting": "[2]; loading 48 h", "result": 58, "unit": "mg/g"},
      {"measurement": "peroxidase activity", "setting": "peroxidase", "result": "increases peroxidase activity"},
      {"measurement": "concentration of saturated aqueous ALA solution", "setting": "[3]", "result": "~800", "unit": "µg/mL"}
    ]},
    {"compound": "Polysorbate 80", "values": [
      {"measurement": "amount of demulcent for every gram of dry mass of hydrogel", "setting": "[2]; loading 24 h", "result": 1, "unit": "mg/g"}
    ]}
  ]
}
